In patent US7713948B2, “Use of 5-substituted nucleosides for reinforcing the apoptotic effect of cytostatic drugs” (Resprotect GmbH, priority 2003, dated 2010):
“Also recorded” adds a separate entry of the source. Each block holds one compound with its values, some of them ahead of it.

Columns and labels:
STAT3 = assay: Western Blot analysis of survival pathways, STAT3; format: cell-based; conditions: after DOX treatment, recovery phase (only BVDU given, no cytostatic)
Source text: (§1) We tested different “survival pathways” by means of Western Blot analysis. The analyses were implemented according to standard methods, as is described in Sambrook et al., 2001, Molecular Cloning (3rd ed.). Antibody dilutions: P-STAT3 (cell signalling) 1:500, JUN-D (Santa Cruz, Calif.) 1:1,000.
(§2) The densitometrically determined content of oncogene proteins JUN-D and STAT3 was reduced by a quarter or two thirds after DOX treatment in the recovery phase (r=recovery phase). In the “recovery” only BVDU is given, no cytostatic.

[1] = system: APURINIC ENDONUCLEASE; APE; APE1; APEX; assay: Two-dimensional gel electrophoresis, APEX; format: cell-based; conditions: co-treatment of MMC with BVDU
Source text: (§3) Listing of the proteins influenced by the treatment with base analogues and mitomycin C. The results of the implementation of a two-dimensional gel electrophoresis are compiled in the following Table 2.

AH13r sarcoma cells = assay: AH13r cell number under increasing doses of cytostatic with or without BVDU, followed by recovery phase; format: cell-based, rat; conditions: for cell number: cytostatic + BVDU after three treatment cycles, in comparison to cytostatic alone
Source text: This effect was established by means of a screening system according to the invention. This screening method is based on the treatment of tumour cells during a chemotherapy cycle over a period of preferably eight to thirty days with increasing doses of a cytostatic and a constant dose of the overexpression inhibitor. After this combination treatment, the cytostatic is discontinued and the treatment is continued solely with the overexpression inhibitor. This recovery phase (also called recovery phase) lasts preferably between 3 and 10 days. Chemotherapy cycles of this type can be implemented successively up to 6 times.
AH13r cells were subjected to increasing doses of the cytostatic mitomycin C (MMC). […] This inhibitory effect was maintained even after discontinuation of the cytostatic in the next cycle, in the so-called recovery phase. The cells without MMC and BVDU continued to grow without inhibition.

AH13r tumour cells = assay: Hoechst 33258/propidium iodide (Hopi) double colouration for apoptosis; format: cell-based; conditions: HOPI double colouration of AH13r tumour cells of the rat
[2] = system: UBIQUITIN-CONJUGATING ENZYME E2N; UBE2N; assay: Two-dimensional gel electrophoresis, UBE2N; format: cell-based; conditions: co-treatment of MMC with BVDU
Source text: as §3

JUN-D = assay: Western Blot analysis of survival pathways, JUN-D; format: cell-based
Source text: as §1, §2

[3] = system: dimethybenzanthracene (DMBA) induced tumours; assay: DMBA-induced tumours in SD rats, tumour size; format: in vivo; conditions: DOX 1 mg/kg
Description: (§4) The reduction in toxic side effects of doxorubicin (DOX) was able to be shown in the test with rats (see Table 1). SD rats were treated with dimethybenzanthracene (DMBA). […] During the treatment and one day after each treatment, i.e. in the recovery phase, the animals obtained respectively 15 mg/kg BVDU.

[4] = DMBA tumour test in SD rats, animal weight (toxic side effects); format: in vivo
Description: DT-D inactivates ROS and thus protects cells from non-specific ROS and electrophilic attacks. […] DOX treatment alone leads to weight losses because of the toxic side effects. It is certain that only the side effects (possibly the cardiotoxicity characteristic of DOX) are reduced by BVDU but not the toxic effects on the tumour.
as §4

reduction of overexpression of UBE2N [2]: approximately one third
Structure (SMILES): O=c1[nH]c(=O)n([C@H]2C[C@H](O)[C@@H](CO)O2)cc1/C=C/Br [BVDU, (E)-5-(2-bromovinyl)-2′-deoxyuridine]
reduction of densitometrically determined content of STAT3 (STAT3): approximately two thirds
reduction of overexpression of APEX [1]: approximately one third
cell growth in the recovery phase (AH13r sarcoma cells; after discontinuation of the cytostatic, BVDU continued alone): greatly inhibited in their growth
toxic effect on cells (AH13r sarcoma cells; given alone): no toxic effect
apoptosis (AH13r tumour cells): promotes apoptosis
inhibition of MMC induced JUN-D overexpression (JUN-D; BVDU given in the recovery after MMC): complete inhibition
reduction of densitometrically determined content of JUN-D (JUN-D; after DOX treatment, recovery phase (only BVDU given, no cytostatic)): approximately one quarter; also recorded: a quarter

Structure (SMILES): COc1cccc2c1C(=O)c1c(O)c3c(c(O)c1C2=O)C[C@@](O)(C(=O)CO)C[C@@H]3O[C@H]1C[C@H](N)[C@H](O)[C@H](C)O1 [DOX, doxorubicin]
Relative tumour size Day 1 ([3]; DMBA-induced tumours, BVDU 15 mg/kg, average of 5-8 rats, Day 1): 1
Relative tumour size Day 16 ([3]; DMBA-induced tumours, BVDU 15 mg/kg, average of 5-8 rats, Day 16): 1.5
growth of DMBA-induced tumours [3]: inhibited in their growth
cell number (AH13r sarcoma cells): Corresponding results
apoptosis (AH13r tumour cells): initiate apoptosis
Relative animal weight Day 1 ([4]; SD rats, DMBA-induced tumours, DOX 1 mg/kg, BVDU 15 mg/kg, average of 5-8 rats, Day 1): 0
Relative animal weight Day 16 ([4]; SD rats, DMBA-induced tumours, DOX 1 mg/kg, BVDU 15 mg/kg, average of 5-8 rats, Day 16): −7%
animal weight change (toxic side effects) ([4]; rat, in vivo): weight losses

Structure (SMILES): CO[C@@]12[C@H](COC(N)=O)C3=C(C(=O)C(C)=C(N)C3=O)N1C[C@@H]1N[C@@H]12 [MMC, mitomycin C]
apoptosis (AH13r tumour cells): initiate apoptosis

Structure (SMILES): CN(Cc1cnc2nc(N)nc(N)c2n1)c1ccc(C(=O)N[C@@H](CCC(=O)O)C(=O)O)cc1 [MTX, methotrexate]
cell number (AH13r sarcoma cells): Corresponding results

Structure (SMILES): O=C1c2c(O)ccc(O)c2C(=O)c2c(NCCNCCO)ccc(NCCNCCO)c21 [MXA, mitoxantrone]
cell number (AH13r sarcoma cells): Corresponding results
apoptosis (AH13r tumour cells): initiate apoptosis
